Reference: the supplement of paper PMC10307832

Key:
Assay in all cases: relative viability (nuclei count vs DMSO), 5 days (fraction); higher = more cells survive
Selisistat + Bortezomib = compound: C1CC(C2=C(C1)C3=C(N2)C=CC(=C3)Cl)C(=O)N [Selisistat] + CC(C)C[C@H](NC(=O)[C@H](Cc1ccccc1)NC(=O)c1cnccn1)B(O)O [Bortezomib] (partner 0.002 µM)
Method in brief: (§1)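 A single step with final 0.05% Triton X-100, 1% formaldehyde and 1 ug/ml Hoechst fixed the cells and stained nuclei 5 days after treatment. Lung cancer cell lines in 1536-well plates had been treated by pin tool the day after seeding with one drug alone or a fixed anchor-drug dose plus five library-drug doses (not always all listed) in √10 steps, and nuclei were counted on 4× images. Relative viability is the ratio of nuclei in treated wells to nuclei in vehicle wells, taken as the median of duplicate plates.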

Selisistat + Crizotinib = compound: C1CC(C2=C(C1)C3=C(N2)C=CC(=C3)Cl)C(=O)N [Selisistat] + C[C@@H](Oc1cc(-c2cnn(C3CCNCC3)c2)cnc1N)c1c(Cl)ccc(F)c1Cl [Crizotinib] (partner 1 µM)
Method in brief: as §1

Serdemetan + Bortezomib = compound: c1ccc2c(CCNc3ccc(Nc4ccncc4)cc3)c[nH]c2c1 [Serdemetan] + CC(C)C[C@H](NC(=O)[C@H](Cc1ccccc1)NC(=O)c1cnccn1)B(O)O [Bortezomib] (partner 0.002 µM)
Method in brief: as §1

Serdemetan + AZD7762 = compound: c1ccc2c(CCNc3ccc(Nc4ccncc4)cc3)c[nH]c2c1 [Serdemetan] + NC(=O)Nc1cc(-c2cccc(F)c2)sc1C(=O)N[C@H]1CCCNC1 [AZD7762] (partner 0.2 µM)
Method in brief: as §1

Cell Line | relative viability (Selisistat + Bortezomib; first compound 0.4 µM) | relative viability (Selisistat + Bortezomib; first compound 1.265 µM) | relative viability (Selisistat + Bortezomib; first compound 4 µM) | relative viability (Selisistat + Bortezomib; first compound 12.65 µM) | relative viability (Selisistat + Bortezomib; first compound 40 µM) | relative viability (Selisistat + Crizotinib; first compound 0.4 µM) | relative viability (Selisistat + Crizotinib; first compound 1.265 µM) | relative viability (Selisistat + Crizotinib; first compound 4 µM) | relative viability (Selisistat + Crizotinib; first compound 12.65 µM) | relative viability (Selisistat + Crizotinib; first compound 40 µM) | relative viability (Serdemetan + Bortezomib; first compound 0.04 µM) | relative viability (Serdemetan + Bortezomib; first compound 0.1265 µM) | relative viability (Serdemetan + Bortezomib; first compound 0.4 µM) | relative viability (Serdemetan + Bortezomib; first compound 1.265 µM) | relative viability (Serdemetan + Bortezomib; first compound 4 µM) | relative viability (Serdemetan + AZD7762; first compound 0.04 µM) | relative viability (Serdemetan + AZD7762; first compound 0.1265 µM) | relative viability (Serdemetan + AZD7762; first compound 4 µM) | relative viability (Serdemetan + AZD7762; first compound 0.4 µM) | relative viability (Serdemetan + AZD7762; first compound 1.265 µM)
LOU-NH91 | 0.499 | 0.505 | 0.448 | 0.511 | 0.515 | 0.766 | 0.664 | 0.683 | 0.729 | 0.738 | 0.536 | 0.485 | 0.412 | 0.409 | 0.433 | 0.768 | 0.746 | 0.79 |  | 
ChaGo-K-1 | 0.972 | 1.03 |  | 0.917 | 0.821 | 1.15 | 1.04 |  | 1.08 | 1.09 |  | 1.14 | 0.697 | 0.775 | 0.849 | 0.876 | 0.801 | 0.545 | 0.75 | 0.507
PC-14 | 0.848 | 0.713 | 0.861 | 0.886 | 0.888 | 0.834 | 0.877 | 0.991 | 0.919 | 0.936 | 0.924 | 0.797 | 0.791 | 0.606 | 0.497 | 0.327 | 0.357 | 0.161 | 0.204 | 0.304
NCI-H1437 | 0.575 | 0.451 | 0.378 | 0.431 | 0.515 | 0.855 | 0.885 | 0.977 | 0.865 | 0.792 | 0.545 | 0.497 | 0.471 | 0.46 | 0.547 | 1.13 | 1.12 | 0.876 | 1.1 | 0.979
NCI-H460 | 1.04 | 1.14 |  | 1.02 | 1.12 | 1.02 | 0.658 |  | 0.881 | 0.987 | 1.05 | 1.1 | 1.19 | 0.561 | 0.1 | 0.461 | 0.547 | 0.141 | 0.571 | 0.229
NCI-H1666 | 1.07 | 0.797 | 0.612 | 0.739 | 0.547 | 1.12 | 0.871 | 0.788 | 0.835 | 0.618 | 0.97 | 0.761 | 0.838 | 0.868 | 0.534 | 0.812 | 0.721 | 0.634 | 0.731 | 0.691
NCI-H1651 | 1.02 | 0.939 | 0.868 | 0.874 | 0.847 | 0.866 | 0.893 | 0.907 | 0.802 | 0.855 | 0.805 | 0.938 | 0.904 | 0.501 | 0.356 | 0.375 | 0.286 | 0.213 | 0.363 | 0.248
NCI-H1755 | 1.04 | 0.972 | 0.955 | 1.01 | 0.925 | 0.917 | 0.927 | 0.952 | 0.82 | 0.946 | 0.877 | 0.949 | 0.896 | 0.58 | 0.563 | 0.461 | 0.45 | 0.389 | 0.492 | 0.288
HARA | 1.12 | 1.19 | 1.14 | 1.15 | 1.06 | 0.95 | 1.01 | 1 | 1 | 0.981 | 1.09 | 1.1 | 1.15 |  | 1.08 | 0.298 | 0.196 | 0.304 | 0.266 | 0.23
NCI-H596 | 1.01 | 0.105 | 0.817 | 0.947 | 1 | 1.11 | 0.898 | 0.853 | 0.991 | 0.905 | 1.17 | 0.606 | 1.11 | 0.649 | 0.818 | 1.17 | 1.19 | 1.16 | 1.08 | 0.922
NCI-H23 | 1.02 | 1.11 |  | 1.1 | 1.08 | 0.515 | 0.474 |  | 0.468 | 0.473 | 1.1 | 1.07 | 1.05 | 0.81 | 1.09 | 0.274 | 0.235 | 0.208 | 0.261 | 
LCLC-97TM1 | 0.696 | 0.77 |  | 0.555 | 0.553 | 0.327 | 0.308 | 0.637 | 0.393 | 0.498 | 0.546 | 0.517 | 0.809 |  | 0.307 | 0.304 | 0.232 | 0.211 | 0.255 | 0.184
EPLC-272H | 0.933 | 0.985 |  | 0.859 | 0.893 | 0.941 | 0.865 |  | 0.915 | 0.992 | 0.967 | 0.931 | 0.899 | 0.723 | 0.634 | 0.245 | 0.217 | 0.215 | 0.221 | 0.221
NCI-H1915 | 1.03 | 0.943 | 0.953 | 1.02 | 1 | 0.917 | 0.87 | 0.883 | 0.885 | 0.908 | 0.957 | 0.974 | 1.02 | 0.723 | 0.86 | 0.685 | 0.656 | 0.503 | 0.763 | 0.536
NCI-H2405 | 0.985 | 0.932 | 0.854 | 0.997 | 0.88 | 0.825 | 0.807 | 0.787 | 0.833 | 0.832 | 0.976 | 0.915 | 0.905 | 0.738 | 0.949 | 0.747 | 0.721 | 0.625 | 0.721 | 0.683
NCI-H322M | 1.36 | 1.25 |  | 1.42 | 1.39 | 0.959 | 1.01 |  | 0.903 | 1.15 | 1.32 | 1.26 | 1.06 | 1.2 | 1.36 | 0.565 | 0.573 | 0.43 | 0.533 | 0.524
NCI-H838 | 0.803 | 0.73 | 0.603 | 0.878 | 1.01 | 0.819 | 0.841 | 0.888 | 0.759 | 0.801 | 0.869 | 0.739 | 0.848 | 0.74 | 0.856 | 0.866 | 0.94 | 0.882 | 0.887 | 0.849
